How the values were obtained:
[1] = molecular target: T1, hERG current in hERG-expressed HEK 293 cells (Homo sapiens, UniProt Q12809); experiment: Effects on hERG current (whole-cell clamp); format: cell-based; details: 1 μM of test compound, tail peak current
T1 construct: host or cells: HEK 293 cells, G418-selected
Protocol: Dimethylsulfoxide was used as a vehicle, and hERG-expressed HEK 293 cells (Cytomyx) were used as test cells. Test cells were once cultured and subdivided and were stored under frozen condition in liquid nitrogen. In the study, thawed and subcultured cells having less than 30 of the passage number were used. Test cells were cultured in a carbon dioxide gas incubator BNP-110M (Tabai Espec Corp.) at 37±1° C. and 5.0±0.5% of carbon dioxide concentration. The component of culture medium was basically MEM (Minimum Essential Medium) supplemented with 10 vol % fetal bovine serum (non-activated), 1 mmol/L sodium pyruvate, 0.1 mmol/L non-essential amino acid and 100 U/mL penicillin/100 μg/mL streptomycin. To select gene-expressing cells, 400 μg/mL G418 Sulphate (Invitrogen) was added to the culture medium. […] A manufacturer of the culture solution is Invitrogen Corporation.
As to seeding of cells for measurement, subcultured cells which became confluent were treated with 0.25% trypsin-solution containing 1 mmol/L EDTA (Invitrogen) to remove therefrom, and seeded on dishes overlaid with sterilized collagen-coated cover glass (Iwaki, AGC Techno Glass Co., LTD). The medium was exchanged appropriately, including the day of measurement.
A perfusion method was carried out for an application route. Test cells were perfused (perfusion speed: approximately 4 mL/min) with an external solution containing specified concentrations of test compounds (component of external solution: 137 mmol/L of sodium chloride, 4 mmol/L of potassium chloride, 10 mmol/L of HEPES, 1.8 mmol/L of calcium chloride, 1 mmol/L of magnesium chloride and 10 mmol/L of glucose; adjusted to pH 7.4±0.1 with sodium hydroxide solution). When no effects were observed until 4 minutes after switching to a test compound solution, the next different concentration of the test compound was perfused. When effects were observed, the perfusion was continued until the maximum response was observed. The maximum perfusion time for lower concentrations of test compound was set for 10 minutes even when effects were observed. The data were obtained from one experiment or more and the cells which were gently incubated in a carbon dioxide incubator after seeding and attached to cover glasses were used for the measurement.
A whole-cell clamping method was applied to the measurement. Test cells were perfused (perfusion speed: approximately 4 mL/min) with an external solution (component of external solution: 137 mmol/L of sodium chloride, 4 mmol/L of potassium chloride, 10 mmol/L of HEPES, 1.8 mmol/L of calcium chloride, 1 mmol/L of magnesium chloride and 10 mmol/L of glucose; adjusted to pH 7.4±0.1 with sodium hydroxide solution). A glass electrode with a resistance of 2 to 6 MΩ, filled with an internal solution (component: 130 mmol/L of potassium chloride, 1 mmol/L of magnesium chloride, 5 mmol/L of EGTA, 10 mmol/L of HEPES and 5 mmol/L of ATP, adjusted to pH 7.2±0.1 with potassium hydroxide solution) was used. After rupturing cell membrane with glass electrode, the cell membrane voltage was held at −80 mV by using patch clamp amplifier (EPC8, HEKA) via a patch clamp software (pCLAMP9 [Axon CNS], Molecular Devices). As illustrated below, a test pulse of +20 mV for 1.5 seconds and −40 mV for 1.5 seconds was given once every 15 seconds. One minute or more after obtaining 500 pA or higher peak value of the stable tail currents, test compounds were applied. Test cells and the cell-seeded cover glass were changed every treatment. Temperature of the fluid in a perfusion fluid tank was 24±2° C.
The obtained current was recorded on a computer by using a patch clamp software via a patch clamp amplifier. An evaluation item was a tail peak current.
A tail peak current was analyzed using analyzing software (Clampfit 9 [Axon CNS], MolecularDevices). […]

[2] = test system: type II collagen-induced arthritis in DBA/1J mice; experiment: Effect on type II collagen-induced arthritis in DBA/1J mice; format: in vivo, mouse; details: oral, once a day for three weeks from booster immunization; significant inhibitory effect on arthritis
Protocol: Effect on Type II Collagen-Induced Arthritis in DBA/1J Mice
An emulsion was prepared by mixing 200 μg of bovine type II collagen (purchased from collagen Gijyutsu Kenshuukai) with Freund's complete adjuvant (Sigma-Aldrich) containing killed Mycobacterium tuberculosis H37Ra, and arthritis was induced by immunization through subcutaneous administration of the emulsion to the tail of 6 to 7 week-old male DBA/1J mouse (Charles River Japan, Inc.), followed by booster immunization three weeks after the first immunization by administration of the same amounts of the emulsion prepared in a similar way. Test compound was suspended or dissolved in 0.5% carboxymethylcellulose (Sigma-Aldrich) and repeatedly administered orally once a day at a dose of 1 to 10 mg/kg body weight using an oral sonde for three weeks from the day of booster immunization. In this model, the symptom of arthritis of the limbs was each evaluated according to the following evaluation criteria of 0 to 4 scores: […], No change; 1, edema in only one joint; 2, edema in two or more joints, or mild edema of the entire limb; 3, severe edema of the entire limb; 4, severe edema of the entire limb and ankylosis and immovability of joint. The score of arthritis of each mouse was expressed as the total of the scores of the limbs (Maximum: 16 points). On the next day of the final administration, soft X-ray photograph of the limbs was taken with soft X-ray equipment (Omic), and the level of joint destruction was evaluated by observation under a microscope. In each finger of the limbs the score of joint destruction in each mouse was judged in the total of scores for each finger of limbs (Maximum: 20) as 0 when no joint destruction was found, and as 1 when one or more destruction was found. The arthritis score and joint destruction score were expressed as the average value and standard error for each group (n=6 to 9). Only a vehicle was administered in a control group, and statistical analysis was performed by Dunnett's multiple comparison test, in which the case was judged as significant when the p value was less than 0.05.

T1 sequence (Q12809 whole entry): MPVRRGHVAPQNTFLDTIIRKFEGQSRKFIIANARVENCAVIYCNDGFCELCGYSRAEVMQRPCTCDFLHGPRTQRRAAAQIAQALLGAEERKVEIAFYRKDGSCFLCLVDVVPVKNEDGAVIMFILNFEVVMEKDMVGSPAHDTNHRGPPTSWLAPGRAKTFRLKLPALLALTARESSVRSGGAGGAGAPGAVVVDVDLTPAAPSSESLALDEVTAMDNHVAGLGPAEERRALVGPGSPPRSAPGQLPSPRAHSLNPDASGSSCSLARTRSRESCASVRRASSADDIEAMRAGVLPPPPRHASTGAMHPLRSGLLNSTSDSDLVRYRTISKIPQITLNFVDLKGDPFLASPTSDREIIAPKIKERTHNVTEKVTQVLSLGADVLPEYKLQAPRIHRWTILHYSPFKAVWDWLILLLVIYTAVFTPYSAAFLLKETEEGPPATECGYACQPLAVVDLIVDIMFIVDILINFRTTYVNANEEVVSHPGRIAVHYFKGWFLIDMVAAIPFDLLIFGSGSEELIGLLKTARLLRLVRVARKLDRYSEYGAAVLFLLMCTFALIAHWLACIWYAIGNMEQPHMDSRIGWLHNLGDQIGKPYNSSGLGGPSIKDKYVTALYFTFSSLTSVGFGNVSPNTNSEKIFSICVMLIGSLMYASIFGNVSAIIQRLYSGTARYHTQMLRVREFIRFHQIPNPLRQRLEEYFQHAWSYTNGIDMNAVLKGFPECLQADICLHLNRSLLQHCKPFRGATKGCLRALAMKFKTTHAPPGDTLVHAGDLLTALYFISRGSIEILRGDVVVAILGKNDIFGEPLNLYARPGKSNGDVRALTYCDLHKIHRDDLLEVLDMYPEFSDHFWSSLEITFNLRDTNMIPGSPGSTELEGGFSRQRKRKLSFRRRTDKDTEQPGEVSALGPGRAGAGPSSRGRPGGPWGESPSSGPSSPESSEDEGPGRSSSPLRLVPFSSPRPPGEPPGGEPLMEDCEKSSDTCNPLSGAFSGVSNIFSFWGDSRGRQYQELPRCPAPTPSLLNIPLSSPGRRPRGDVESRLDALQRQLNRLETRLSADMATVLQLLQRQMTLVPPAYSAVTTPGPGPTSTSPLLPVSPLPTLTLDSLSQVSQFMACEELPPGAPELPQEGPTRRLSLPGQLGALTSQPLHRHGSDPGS

Row | SMILES | Inhibition ratio (%) [1] [%] | Effective Dose (showing arthritis-inhibiting activity) [2] [mg/kg]
1 | Cc1c(C(=O)Nc2cnc(N3CCC(O)CC3)c(C3CC3)c2)cnn1-c1ccc(Cl)cc1 [Example 39, 1-(4-chlorophenyl)-N-[5-cyclopropyl-6-(4-hydroxypiperidin-1-yl)pyridin-3-yl]-5-methyl-1H-pyrazole-4-carboxamide] | 8.1 | 3
2 | Cc1cc(NC(=O)c2cnn(-c3ccc(Cl)cc3)c2C)cnc1N1CCC(O)CC1 [Example 43, 1-(4-chlorophenyl)-N-[6-(4-hydroxypiperidin-1-yl)-5-methylpyridin-3-yl]-5-methyl-1H-pyrazole-4-carboxamide] | 9.4 | 
3 | Cc1c(C(=O)Nc2cnc(N3CCC(O)CC3)c(C#N)c2)cnn1-c1ccc(Cl)cc1 [Example 44, 1-(4-chlorophenyl)-N-[5-cyano-6-(4-hydroxypiperidin-1-yl)pyridin-3-yl]-5-methyl-1H-pyrazole-4-carboxamide] | 2 | 3
4 | Cc1c(C(=O)Nc2cnc(N3CCC(O)CC3)c(C#N)c2)cnn1-c1ccc(C(F)(F)F)cc1 [Example 45, N-[5-cyano-6-(4-hydroxypiperidin-1-yl)pyridin-3-yl]-5-methyl-1-[4-(trifluoromethyl)phenyl]-1H-pyrazole-4-carboxamide] | 4.2 | 10
5 | Cc1cc(NC(=O)c2cnn(-c3ccc(C(F)(F)F)cc3)c2C)cnc1N1CCC(C(C)(C)F)CC1 [Example 47, N-{6-[4-(1-fluoro-1-methylethyl)piperidin-1-yl]-5-methylpyridin-3-yl}-5-methyl-1-[4-(trifluoromethyl)phenyl]-1H-pyrazole-4-carboxamide] | 32.7 | 
6 | Cc1cc(NC(=O)c2cnn(-c3ccc(C(F)(F)F)cn3)c2C)cnc1N1CCC(C(C)(C)F)CC1 [Example 49, N-{6-[4-(1-fluoro-1-methylethyl)piperidin-1-yl]-5-methylpyridin-3-yl}-5-methyl-1-[5-(trifluoromethyl)pyridin-2-yl]-1H-pyrazole-4-carboxamide] | 40.5 | 

Source: US9527859B2, “Amidopyridine derivative and use thereof” (Mitsubishi Tanabe Pharma Corporation, priority 2012, dated 2016)
